Experimental data: patent US20250270191A1, “QUINOLONE BCL6 BIFUNCTIONAL DEGRADERS” (Treeline Biosciences, Inc., priority 2022, published 2025)

Experiments:
[1] = target: T1, Human BCL6 protein (N-terminal HiBiT tagged BCL6 in HT1080 cells) (Homo sapiens, UniProt P41182+Q96SW2); assay: HiBiT based BCL6 degradation assay; type: cell-based; conditions: HT1080 cells expressing N-terminal HiBiT tagged BCL6; 5 hours incubation; BCL6 degradation normalized with DMSO control
T1 construct: Human BCL6 protein coding open reading frame; expressed in transfected cells; host or cells: HT1080 (ATCC CCL-121), stably transduced with lentivirus pLV-UBC-N-HiBiT-BCL6-PGK-puro
Outline: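 HT1080 cells stably expressing N-terminal HiBiT-BCL6 were treated with compound dilution series for 5 h at 37° C. in RPMI 1640 with 10% FBS. HiBiT lytic luminescence read after 15 min; degradation normalized to DMSO, with curves fitted by four-parameter logistic model.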

[2] = Pharmacokinetic assessment in male CD-1 mice (IV and PO); type: in vivo; conditions: mouse, plasma; for clearance: clearance (IV), commonly 1 mg/kg; for clearance / AUC(0-inf): non-compartmental model; for bioavailability: oral bioavailability, PO commonly 10 mg/kg vs IV commonly 1 mg/kg; for Cmax / AUC(0-inf): route not given
Protocol: Pharmacokinetics (PK) studies were conducted on male CD-1 mice by two delivery routes: intravenous (IV) injection and oral gavage (PO). Mice for the IV group (n=3) were allowed free access to food and water and mice for the PO group (n=3) were fasted 6-8 hours prior to dosing. The test articles were formulated in solution for the IV route (commonly 5% DMSO/10% Solutol HS15/85% water (pH 5)) and solution or suspension for the PO route (commonly 100% PEG400). On the day of the experiment, test article was administered via vein injection (commonly 1 mg/kg) for IV route or via oral gavage (commonly 10 mg/kg) for PO route, respectively. Blood samples were collected via the saphenous vein using a needle (commonly 20G) at 0.83 to 24 hours post dose. Approximately 30 μL of blood per timepoint was collected into pre-chilled tubes using K2EDTA as the anti-coagulant. After collection of blood samples at each time point, the blood samples were stored on ice. Blood samples were centrifuged within 0.5 hour of collection to separate plasma. Centrifugation was conducted at 2500×g for 15 minutes at 4° C. Plasma samples were immediately acidified (commonly 0.1M sodium citrate (pH=5) buffer). The samples were then submitted to LC-MS/MS for sample analysis. Pharmacokinetics parameters, including clearance (IV), area under the curve (AUC), and oral bioavailability (% F) were calculated by non-compartmental model.

| Structure (SMILES) | Ymin (5 hr) [1] | clearance [2] | bioavailability [2] | Cmax [2] | AUC(0-inf) [2] |
| --- | --- | --- | --- | --- | --- |
| CNC(=O)COc1cc2cc(Nc3nc(N4CCN(CC5CCN(c6cccc7c(C8CCC(=O)NC8=O)nn(C)c67)CC5)CC4)ncc3Cl)ccc2n(C)c1=O (stereo not drawn) [Compound 101, 2-((6-((5-chloro-2-(4-((1-(3-(2,6-dioxopiperidin-3-yl)-1-methyl-1H-indazol-7-yl)piperidin-4-yl)methyl)piperazin-1-yl)pyrimidin-4-yl)amino)-1-methyl-2-oxo-1,2-dihydroquinolin-3-yl)oxy)-N-methylacetamide] | ++++ (Ymin ≤ 25%) | 12.8 mL/min/kg | 76.4% | 3400 nM | 12.6 µM·h |
| CNC(=O)COc1cc2cc(Nc3nc(N4CCN(CC5CCN(c6ccc7c(C8CCC(=O)NC8=O)nn(C)c7c6)CC5)CC4)ncc3Cl)ccc2n(C)c1=O (stereo not drawn) [Compound 102, 2-((6-((5-chloro-2-(4-((1-(3-(2,6-dioxopiperidin-3-yl)-1-methyl-1H-indazol-6-yl)piperidin-4-yl)methyl)piperazin-1-yl)pyrimidin-4-yl)amino)-1-methyl-2-oxo-1,2-dihydroquinolin-3-yl)oxy)-N-methylacetamide] | +++ (25% < Ymin ≤ 50%) | 10.8 mL/min/kg | 67.5% | 2550 nM | 13.5 µM·h |
| CNC(=O)COc1cc2cc(Nc3nc(N4CCN(C[C@H]5CCN(c6cccc7c(C8CCC(=O)NC8=O)nn(C)c67)C5)CC4)ncc3Cl)ccc2n(C)c1=O (stereo partly drawn) [Compound 305a, 2-((6-((5-chloro-2-(4-(((3R)-1-(3-(2,6-dioxopiperidin-3-yl)-1-methyl-1H-indazol-7-yl)pyrrolidin-3-yl)methyl)piperazin-1-yl)pyrimidin-4-yl)amino)-1-methyl-2-oxo-1,2-dihydroquinolin-3-yl)oxy)-N-methylacetamide] | +++ (25% < Ymin ≤ 50%) |  |  |  |  |
| CNC(=O)COc1cc2cc(Nc3nc(N4CCC(CC5CCN(c6cccc7c(C8CCC(=O)NC8=O)nn(C)c67)CC5)CC4)ncc3Cl)ccc2n(C)c1=O (stereo not drawn) [Compound 281, 2-((6-((5-chloro-2-(4-((1-(3-(2,6-dioxopiperidin-3-yl)-1-methyl-1H-indazol-7-yl)piperidin-4-yl)methyl)piperidin-1-yl)pyrimidin-4-yl)amino)-1-methyl-2-oxo-1,2-dihydroquinolin-3-yl)oxy)-N-methylacetamide] | +++ (25% < Ymin ≤ 50%) |  |  |  |  |
| CNC(=O)COc1cc2cc(Nc3nc(N4CCC[C@@H](COc5ccc6c(C7CCC(=O)NC7=O)nn(C)c6c5)C4)ncc3Cl)ccc2n(C)c1=O (stereo partly drawn) [Compound 302b, 2-((6-((5-chloro-2-((3R)-3-(((3-(2,6-dioxopiperidin-3-yl)-1-methyl-1H-indazol-6-yl)oxy)methyl)piperidin-1-yl)pyrimidin-4-yl)amino)-1-methyl-2-oxo-1,2-dihydroquinolin-3-yl)oxy)-N-methylacetamide] | ++ (50% < Ymin ≤ 70%) |  |  |  |  |
| CNC(=O)COc1cc2cc(Nc3nc(NCc4ccc(CNc5ccc6c(C7CCC(=O)NC7=O)nn(C)c6c5)cc4)ncc3Cl)ccc2n(C)c1=O (stereo not drawn) [Compound 315, 2-((6-((5-chloro-2-((4-(((3-(2,6-dioxopiperidin-3-yl)-1-methyl-1H-indazol-6-yl)amino)methyl)benzyl)amino)pyrimidin-4-yl)amino)-1-methyl-2-oxo-1,2-dihydroquinolin-3-yl)oxy)-N-methylacetamide] | ++ (50% < Ymin ≤ 70%) |  |  |  |  |
| CNC(=O)COc1cc2cc(Nc3nc(N4CCN(CC5CCN(c6cccc7c(C8CCC(=O)NC8=O)nn(C)c67)CC5)[C@@H](C)C4)ncc3Cl)ccc2n(C)c1=O (stereo partly drawn) [Compound 308b, 2-((6-((5-chloro-2-((3S)-4-((1-(3-(2,6-dioxopiperidin-3-yl)-1-methyl-1H-indazol-7-yl)piperidin-4-yl)methyl)-3-methylpiperazin-1-yl)pyrimidin-4-yl)amino)-1-methyl-2-oxo-1,2-dihydroquinolin-3-yl)oxy)-N-methylacetamide] | ++++ (Ymin ≤ 25%) |  |  |  |  |
